Measurements: ChEMBL document CHEMBL3885881, “DrugMatrix”

Species: Rattus norvegicus
Assay: DrugMatrix - Regimen: Daily Repeat
Type: toxicity, organism-based, Sprague-Dawley
Parameters: regimen Daily Repeat, gender Male, age 6-8 weeks
Settings: in vivo, po, 1200 mg/kg, route oral GAVAGE, dose level High, vehicle .5 % CMC; for ABSOLUTE BASOPHIL / ABSOLUTE EOSINOPHIL / ABSOLUTE LYMPHOCYTE / ABSOLUTE MONOCYTE / ABSOLUTE SEGMENTED NEUTROPHIL / BASOPHIL / EOSINOPHIL / ERYTHROCYTE COUNT / HEMATOCRIT / HEMOGLOBIN / LEUKOCYTE COUNT / LYMPHOCYTE / MEAN CORPUSCULAR HEMOGLOBIN / MEAN CORPUSCULAR HEMOGLOBIN CONCENTRATION / MEAN CORPUSCULAR VOLUME / MONOCYTE / NEUTROPHIL / NUCLEATED RED BLOOD CELLS / PLATELET COUNT: tissue Blood
[1] = 72 h, tissue Plasma, time 3 day
[2] = 120 h, tissue Plasma, time 5 day

Nc1ccc(Cl)cc1[N+](=O)[O-] [4-CHLORO-2-NITROANILINE]
ABSOLUTE BASOPHIL (72 h, time 3 day): 0 CELLS/uL | ABSOLUTE EOSINOPHIL (72 h, time 3 day): 170.33 CELLS/uL | ABSOLUTE LYMPHOCYTE (72 h, time 3 day): 8812.67 CELLS/uL | ABSOLUTE MONOCYTE (72 h, time 3 day): 210.67 CELLS/uL | ABSOLUTE SEGMENTED NEUTROPHIL (72 h, time 3 day): 673 CELLS/uL | BASOPHIL (72 h, time 3 day): 0% | EOSINOPHIL (72 h, time 3 day): 1.67% | ERYTHROCYTE COUNT (72 h, time 3 day): 6.64 x10E6/uL | HEMATOCRIT (72 h, time 3 day): 39.73% | HEMOGLOBIN (72 h, time 3 day): 14.83 G/DL | LEUKOCYTE COUNT (72 h, time 3 day): 9.87 x10E3/uL | LYMPHOCYTE (72 h, time 3 day): 89% | MEAN CORPUSCULAR HEMOGLOBIN (72 h, time 3 day): 22.33 pg | MEAN CORPUSCULAR HEMOGLOBIN CONCENTRATION (72 h, time 3 day): 37.37 G/DL | MEAN CORPUSCULAR VOLUME (72 h, time 3 day): 59.8 fL | MONOCYTE (72 h, time 3 day): 2.33% | NEUTROPHIL (72 h, time 3 day): 7% | NUCLEATED RED BLOOD CELLS (72 h, time 3 day): 0.33 /100WBC | PLATELET COUNT (72 h, time 3 day): 873.33 x10E3/uL | ALANINE AMINOTRANSFERASE [1]: 82.67 u/L | ALBUMIN [1]: 4.53 G/DL | ALKALINE PHOSPHATASE [1]: 464.33 u/L | ASPARTATE AMINOTRANSFERASE [1]: 89.67 u/L | BLOOD UREA NITROGEN [1]: 17 mg/dL | CARBON DIOXIDE [1]: 36.67 mmol/L | CHLORIDE [1]: 100 MEQ/L | CHOLESTEROL [1]: 91.67 mg/dL | CREATININE [1]: 0.24 mg/dL | GLUCOSE [1]: 126.33 mg/dL | LACTATE DEHYDROGENASE [1]: 78.67 u/L | LIPASE [1]: 10 u/L | PHOSPHORUS [1]: 11.83 mg/dL | POTASSIUM [1]: 6.36 MEQ/L | SODIUM [1]: 147.57 MEQ/L | TOTAL BILIRUBIN [1]: 0.23 mg/dL | TOTAL PROTEIN [1]: 6.73 G/DL | URIC ACID [1]: 1.37 mg/dL | ABSOLUTE BASOPHIL (120 h, time 5 day): 0 CELLS/uL | ABSOLUTE EOSINOPHIL (120 h, time 5 day): 100.67 CELLS/uL | ABSOLUTE LYMPHOCYTE (120 h, time 5 day): 9384 CELLS/uL | ABSOLUTE MONOCYTE (120 h, time 5 day): 183 CELLS/uL | ABSOLUTE SEGMENTED NEUTROPHIL (120 h, time 5 day): 1099 CELLS/uL | BASOPHIL (120 h, time 5 day): 0% | EOSINOPHIL (120 h, time 5 day): 1% | ERYTHROCYTE COUNT (120 h, time 5 day): 6.3 x10E6/uL | HEMATOCRIT (120 h, time 5 day): 37.27% | HEMOGLOBIN (120 h, time 5 day): 13.47 G/DL | LEUKOCYTE COUNT (120 h, time 5 day): 10.77 x10E3/uL | LYMPHOCYTE (120 h, time 5 day): 87% | MEAN CORPUSCULAR HEMOGLOBIN (120 h, time 5 day): 21.43 pg | MEAN CORPUSCULAR HEMOGLOBIN CONCENTRATION (120 h, time 5 day): 36.17 G/DL | MEAN CORPUSCULAR VOLUME (120 h, time 5 day): 59.17 fL | MONOCYTE (120 h, time 5 day): 1.67% | NEUTROPHIL (120 h, time 5 day): 10.33% | NUCLEATED RED BLOOD CELLS (120 h, time 5 day): 0 /100WBC | PLATELET COUNT (120 h, time 5 day): 947 x10E3/uL | ALANINE AMINOTRANSFERASE [2]: 49 u/L | ALBUMIN [2]: 4.1 G/DL | ALKALINE PHOSPHATASE [2]: 387 u/L | ASPARTATE AMINOTRANSFERASE [2]: 69 u/L | BLOOD UREA NITROGEN [2]: 12.67 mg/dL | CARBON DIOXIDE [2]: 31 mmol/L | CHLORIDE [2]: 102.67 MEQ/L | CHOLESTEROL [2]: 97.33 mg/dL | CREATININE [2]: 0.18 mg/dL | GLUCOSE [2]: 126.33 mg/dL | LACTATE DEHYDROGENASE [2]: 87 u/L | LIPASE [2]: 10 u/L | PHOSPHORUS [2]: 12.2 mg/dL | POTASSIUM [2]: 7.1 MEQ/L | SODIUM [2]: 147.03 MEQ/L | TOTAL BILIRUBIN [2]: 0.23 mg/dL | TOTAL PROTEIN [2]: 6.2 G/DL
